The values below come from patent publication US6060241A (priority 1997, dated 2000).

Structures are written as SMILES.

T1 sequence (P56006 whole entry): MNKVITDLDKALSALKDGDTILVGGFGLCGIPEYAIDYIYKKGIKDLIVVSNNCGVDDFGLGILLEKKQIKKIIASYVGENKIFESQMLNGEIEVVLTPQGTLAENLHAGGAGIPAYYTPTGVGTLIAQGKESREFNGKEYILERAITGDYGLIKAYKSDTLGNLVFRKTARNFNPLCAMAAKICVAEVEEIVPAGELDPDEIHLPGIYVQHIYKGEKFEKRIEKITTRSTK
T1 sequence (P56007 whole entry): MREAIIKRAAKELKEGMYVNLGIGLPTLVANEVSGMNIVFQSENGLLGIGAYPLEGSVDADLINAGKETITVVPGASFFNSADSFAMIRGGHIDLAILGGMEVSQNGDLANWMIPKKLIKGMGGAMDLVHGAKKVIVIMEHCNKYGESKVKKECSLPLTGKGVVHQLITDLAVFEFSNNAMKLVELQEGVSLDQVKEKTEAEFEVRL

The first assay addresses T1, Hp 3-oxoacid CoA-transferase (Helicobacter pylori, UniProt P56006+P56007).
T1 construct: second column endogenous enzyme in H. pylori lysate
Put plainly: 3-oxoacid CoA transferase activity reconstituted in E. coli, in the presence of inhibitors. Conditions: statement that refers to Example 11. It counts as biochemical. The procedure:
For 3-oxoadipate-CoA and 3-oxoacid CoA-transferase assays (FIGS. 7A, 7B, and 7C), E. coli cells transformed with pCoAT, which contains A^73 TGAA-TATAG^1394 of SEQ ID NO.:1 or with pUrea a plasmid containing the gene for urease (Labigne et al., J. Bacteriol. 173:1920-1931 (1991)) as a negative control, were washed once with M9 salts minimal medium (Molecular Cloning, a laboratory manual, Sambrook, Fritsch and Maniatis, second edition), pellets were stored at -20° C. until just prior to disruption. Thawed cell pellets were resuspended in 1 ml 50 mM phosphate buffer (pH 6.8), 1 mM dithiothreitol (Merck). Cell suspensions were disrupted by sonication and cellular debris removed by centrifugation. For butyrate-acetoacetate-CoA-transferase assays, the buffer used for cell wash and pellets resuspension was: 50 mM MOPS (pH 7.0), 0.5 M (NH4)2SO4, 20% (v/v) glycerol, 1 mM EDTA. Protein concentration in cellular extracts was determined by Bradford's method (1976) using γ globulin as standard (Bio-Rad) and activity expressed in U/mg of protein.
(§1) Activity was measured by monitoring the increase in A310 corresponding to the formation of acetoacetyl-CoA, as previously described (Howard et al., 1986). The assay contained 67 mM acetoacetate (Aldrich), 300 μM succinyl-CoA and 15 mM MgCl2 in 50 mM Tris-HCl pH 9.1. Under the experiment conditions, ε=7,800 M^-1 cm^-1.
(§2) The activity assay was performed as described in Example 8 in the presence of the indicated inhibitors. The results are presented below in Table 6
For the compound `CC(CC(=O)O)C(=O)O` (stereo not drawn) [methyl succinic acid], the “inhibition of Hp CoA-transferase (in words)” value is reported as “inhibit Hp CoA-transferase”.

For `O=C(O)CC(S)C(=O)O` (stereo not drawn) [mercapto succinic acid], the “inhibition of Hp CoA-transferase (in words)” value is given as “inhibit Hp CoA-transferase”.

The assay is the same for the next values; noted with them: substances (50 nM); lysate of E. coli transformed with pCoA-t; none = 2255 ± 7.
Take `O=C(O)CC(=O)O` [disodium malonate]: the “Specific activity (mU/mg ± SD), 3-oxoacid CoA transferase, E. coli transformed with pCOA-t” value (from here on “Specific activity (mU/mg ± SD) … with pCOA-t”) is reported as 1823 ± 162 mU/mg.

Take `CC(CC(=O)O)C(=O)O` (stereo not drawn) [methyl succinic acid]: the “Specific activity (mU/mg ± SD) … with pCOA-t” value is listed as 67 ± 51 mU/mg.

As for `COC(=O)CCC(=O)O` [methyl succinic ester], the “Specific activity (mU/mg ± SD) … with pCOA-t” value was determined as 58 ± 49 mU/mg.

As for `O=C(O)CC(O)C(=O)O` (stereo not drawn) [monosodium malate], the “Specific activity (mU/mg ± SD) … with pCOA-t” value stood at 131 ± 0 mU/mg.

With `N[C@@H](CC(=O)O)C(=O)[O-].[Na+]` [monosodium aspartate], the “Specific activity (mU/mg ± SD) … with pCOA-t” value turned out to be 1859 ± 151 mU/mg.

Consider `O=C(O)CCCC(=O)O` [glutaric acid], for which the “Specific activity (mU/mg ± SD) … with pCOA-t” value came to 31 ± 7 mU/mg.

Turning to `O=C(O)CC(S)C(=O)O` (stereo not drawn) [mercapto succinic acid], the “Specific activity (mU/mg ± SD) … with pCOA-t” value came to 16 ± 13 mU/mg.

For a further assay, the target named is T1, Hp 3-oxoacid CoA-transferase. Put plainly: 3-oxoacid CoA transferase activity endogenous in H. pylori lysates, in the presence of inhibitors. Conditions: substances (50 nM); endogenous enzyme in H. pylori lysate; none = 25 ± 1. Type of assay: biochemical. On the procedure: as §1
(§3) The activity assay was performed as described in Example 8, using H. pylori cell lysates.
as §2
Regarding `O=C(O)CC(=O)O` [disodium malonate], the “Specific activity (mU/mg ± SD), 3-oxoacid CoA transferase, H pytori” value (“Specific activity (mU/mg ± SD) … H pytori” for short) was 27 ± 4 mU/mg.

Turning to `CC(CC(=O)O)C(=O)O` (stereo not drawn) [methyl succinic acid], the “Specific activity (mU/mg ± SD) … H pytori” value is given as 0 ± 1 mU/mg.

Take `COC(=O)CCC(=O)O` [methyl succinic ester]: the “Specific activity (mU/mg ± SD) … H pytori” value turned out to be 14 ± 3 mU/mg.

Regarding `O=C(O)CC(O)C(=O)O` (stereo not drawn) [monosodium malate], the “Specific activity (mU/mg ± SD) … H pytori” value is listed as 22 ± 8 mU/mg.

Consider `N[C@@H](CC(=O)O)C(=O)[O-].[Na+]` [monosodium aspartate], for which the “Specific activity (mU/mg ± SD) … H pytori” value worked out at 24 ± 1 mU/mg.

As to `O=C(O)CCCC(=O)O` [glutaric acid], the “Specific activity (mU/mg ± SD) … H pytori” value was found to be 16 ± 5 mU/mg.

On to `O=C(O)CC(S)C(=O)O` (stereo not drawn) [mercapto succinic acid], for which the “Specific activity (mU/mg ± SD) … H pytori” value amounted to 2 ± 2 mU/mg.

A further assay deals with T2, acetoacetyl CoA thiolase (Helicobacter pylori, UniProt O25399).
T2 construct: mouse-adapted P49 used for mutants
T2 sequence (O25399 entry or part of it): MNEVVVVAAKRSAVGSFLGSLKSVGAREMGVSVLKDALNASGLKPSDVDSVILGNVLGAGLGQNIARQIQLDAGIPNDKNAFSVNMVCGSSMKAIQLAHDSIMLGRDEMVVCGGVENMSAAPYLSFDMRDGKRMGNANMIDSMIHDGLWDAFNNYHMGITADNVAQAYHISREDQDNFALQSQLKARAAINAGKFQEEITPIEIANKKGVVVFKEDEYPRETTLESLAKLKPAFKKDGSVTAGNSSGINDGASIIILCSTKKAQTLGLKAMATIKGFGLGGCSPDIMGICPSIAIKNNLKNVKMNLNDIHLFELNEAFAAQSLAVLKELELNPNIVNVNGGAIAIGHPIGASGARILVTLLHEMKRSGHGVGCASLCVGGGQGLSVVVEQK
As to the kind of experiment: biochemical. Type of assay: biochemical. Conditions: 2 mM iodoacetamide; H. pylori lysate; 25±2 mU/mg without iodoacetamide. On the procedure: as §1, §3
The only CoA-transferase activity detected in H. pylori lysates was the one leading to the formation of acetoacetyl CoA from succinyl CoA and acetoacetate in the presence of Mg^2+.
As to `NC(=O)CI` [iodoacetamide], the “CoA transferase specific activity” value was 60±2 mU/mg.

The same assay, now with this note: read-out: increase of CoA transferase specific activity.
Regarding `NC(=O)CI` [iodoacetamide], the fold induction at 2000 µM worked out at 2.5.

The target of another assay is 3 oxo acid CoA-transferase (Helicobacter pylori, UniProt P56006+P56007). Put plainly: Reverse reaction of CoA-transferase, disappearance of acetoacetyl CoA at 310 nm. Type of assay: biochemical. Conditions: Hp 69A + 2 mM iodoacetamide; Hp 69A alone = 227 ± 4. The text has this: As described above, CoA-transferase also catalyzes the reverse reaction, acetoacetyl CoA+succinate→acetoacetate+succinyl CoA. This additional 3-oxoacid CoA-transferase activity is examined in transformed E. coli and H. pylori by measuring the disappearance of acetoacetyl CoA at 310 nm.
Sequence of 3 oxo acid CoA-transferase (P56007 whole entry): as the sequence (P56007 whole entry) above
Sequence of 3 oxo acid CoA-transferase (P56006 whole entry): as the sequence (P56006 whole entry) above
`NC(=O)CI` [iodoacetamide]: the “Specific activity (mU/mg), reverse reaction” value came to 257 ± 0 mU/mg.

For a further assay, the target named is mammalian CoA-transferase (Homo sapiens, UniProt P55809). Put plainly: Effect on the mammalian CoA-transferase. Conditions: statement that refers to Example 11; no mammalian data printed.
Sequence of mammalian CoA-transferase (P55809 40-520): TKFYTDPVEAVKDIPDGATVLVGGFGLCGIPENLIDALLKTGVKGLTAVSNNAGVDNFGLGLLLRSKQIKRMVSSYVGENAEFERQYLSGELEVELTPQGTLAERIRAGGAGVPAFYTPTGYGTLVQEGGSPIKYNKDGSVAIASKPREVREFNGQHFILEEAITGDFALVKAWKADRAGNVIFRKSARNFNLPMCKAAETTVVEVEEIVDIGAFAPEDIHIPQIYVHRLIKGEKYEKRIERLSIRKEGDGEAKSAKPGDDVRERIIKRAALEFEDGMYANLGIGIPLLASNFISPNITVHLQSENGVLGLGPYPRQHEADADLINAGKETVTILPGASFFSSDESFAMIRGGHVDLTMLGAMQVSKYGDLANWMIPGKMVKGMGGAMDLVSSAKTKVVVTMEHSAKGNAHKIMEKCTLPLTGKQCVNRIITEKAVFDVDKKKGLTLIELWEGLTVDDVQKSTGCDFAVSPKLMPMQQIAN
In the case of `CC(CC(=O)O)C(=O)O` (stereo not drawn) [methyl succinic acid], the “inhibition of the mammalian homologue (in words)” value is listed as “not the mammalian homologue”.

Take `O=C(O)CC(S)C(=O)O` (stereo not drawn) [mercapto succinic acid]: the “inhibition of the mammalian homologue (in words)” value is recorded as “not the mammalian homologue”.
